Tests used:
[1] = cited from earlier work; for anesthetic properties / utility: prior art statement (fluorocyclobutanes: Larsen 1969 review)
mice = experiment: standard test for evaluation of inhalation anesthetics in mice (rotating drum, 10 min exposure); format: in vivo; details: mice, inhalation, 10 minutes exposure, rotating drum; % volume
Procedure: (§1) In this test, mice were exposed to the compound for a period of 10 minutes in a rotating drum. Observations were made of the pinch reflex, the corneal reflex and the return of the righting reflex. At least four graded doses were employed to determine the minimum concentration required to anesthetized 50% of the mice (AC50) and the minimum concentration required to kill 50% of the mice (LC50). The anesthetic index (AI) was then calculated from these minimum concentrations.

[2] = as above; format: in vivo; details: mouse, in vivo, inhaled or intranasal; calculated from AC50 and LC50 minimum concentrations; read-out: AI (anesthetic index)
Procedure: as §1

Row | Structure (SMILES) | anesthetic properties / utility [1] | LC50 (minimum concentration required to kill 50% of the mice) (mice) | selectivity ratio at 10 min [2] | also measured
1 | FC1C(F)C(F)(F)C1(F)F (centres unmarked) [1,2-dihydrohexafluoro-] | possesses anesthetic properties |  |  | 
2 | COC1(F)C(F)(F)C(F)(F)C1(F)Cl (centres unmarked) [Example 1, 1-chloro-2-methoxy-1,2,3,3,4,4-hexafluorocyclobutane] |  | 7-8% | ~2 | 
3 | FC1(F)C(F)(F)C(F)(Cl)C1(F)Cl (centres unmarked) [1,2-dichlorohexafluoro-] |  |  |  | toxicity ([1]; Larsen 1969 review): toxic
4 | C1CC1 [cyclopropane] | effective if inflammable anesthetic |  |  | 
5 | COC1(F)C(F)(F)C(F)(F)C1(F)Br (centres unmarked) [Example 3, 1-bromo-2-methoxy-1,2,3,3,4,4-hexafluorocyclobutane] |  | > 2.5% | > 2.5 | 
6 | COC1CC(F)(F)C1(F)Cl (centres unmarked) [Example 2, 1-chloro-2methoxy-1,4,4-trifluorocyclobutane] |  | > 2% | > 2 | 
7 | FC1(F)C(F)(F)C(F)(F)C1(F)F [octafluoro-] | inactive |  |  | 
8 | C1CCCC1 [cyclopentane] | no medical utility |  |  | 
